These are literature values, as cited in publication PMC2747598 (Journal of the American Chemical Society, 2009).

The test system of this data set is HeLa cells. The settings on record: unconjugated complexes.
Ru(phen)(bpy′)(dppz)^2+: the “Mode of cellular uptake” value was “enter by passive diffusion and do not exhibit punctate staining”.

Ru(phen)2dppz^2+: the “Mode of cellular uptake” value is “enter by passive diffusion and do not exhibit punctate staining”.

As to `[Ru+2].c1ccc(-c2ccccn2)nc1.c1ccc(-c2ccccn2)nc1.c1ccc2nc3c4cccnc4c4ncccc4c3nc2c1` [Ru(bpy)2dppz^2+], the “Mode of cellular uptake” value is “enter by passive diffusion and do not exhibit punctate staining”.
